From the NIST ThermoML archive (doi:10.1021/je500420g) come the findings set out here.

± gives the expanded uncertainty stated by the source.

This series can be described thus: xn = mol fraction of the nth substance listed. Particulars: 100 kPa, Liquid, Vibrating tube method.

In the case of `[F-].[K+]` [potassium fluoride] + O, the mass density (293.15 K, x1 = 0.01) came out at 1025.7 ± 0.2 kg/m3; the mass density (293.15 K, x1 = 0.03) was 1080.5 ± 0.2 kg/m3; the mass density (293.15 K, x1 = 0.05) is given as 1135.5 ± 0.3 kg/m3; the mass density (303.15 K, x1 = 0.01) stood at 1022.8 ± 0.2 kg/m3; the mass density (303.15 K, x1 = 0.03) stood at 1077 ± 0.2 kg/m3; the mass density (303.15 K, x1 = 0.05) was found to be 1130.7 ± 0.3 kg/m3. The mass density runs as follows: (313.15 K, x1 = 0.01) 1019.2 ± 0.2 kg/m3; (313.15 K, x1 = 0.03) 1072.9 ± 0.2 kg/m3; (313.15 K, x1 = 0.05) 1126.5 ± 0.3 kg/m3; (323.15 K, x1 = 0.01) 1014.8 ± 0.2 kg/m3; (323.15 K, x1 = 0.03) 1068.4 ± 0.2 kg/m3; (323.15 K, x1 = 0.05) 1121.9 ± 0.3 kg/m3. For the same molecule, the mass density by setting is: (333.15 K, x1 = 0.01) 1010 ± 0.2 kg/m3; (333.15 K, x1 = 0.03) 1063.5 ± 0.2 kg/m3; (333.15 K, x1 = 0.05) 1116.9 ± 0.3 kg/m3.

Take `[I-].[K+]` [potassium iodide] + O: the mass density reads like this: (293.15 K, x1 = 0.01) 1065.2 ± 0.2 kg/m3; (293.15 K, x1 = 0.03) 1194 ± 0.3 kg/m3; (293.15 K, x1 = 0.05) 1317.9 ± 0.4 kg/m3; (303.15 K, x1 = 0.01) 1061.9 ± 0.2 kg/m3; (303.15 K, x1 = 0.03) 1189.3 ± 0.3 kg/m3; (303.15 K, x1 = 0.05) 1312.1 ± 0.4 kg/m3. Further, the mass density reads like this: (313.15 K, x1 = 0.01) 1057.9 ± 0.2 kg/m3; (313.15 K, x1 = 0.03) 1184.1 ± 0.3 kg/m3; (313.15 K, x1 = 0.05) 1306 ± 0.4 kg/m3; (323.15 K, x1 = 0.01) 1053.2 ± 0.2 kg/m3; (323.15 K, x1 = 0.03) 1178.4 ± 0.3 kg/m3; (323.15 K, x1 = 0.05) 1299.3 ± 0.4 kg/m3. Moreover, the mass density (333.15 K, x1 = 0.01) was 1047.9 ± 0.2 kg/m3; the mass density (333.15 K, x1 = 0.03) is 1172.3 ± 0.3 kg/m3; the mass density (333.15 K, x1 = 0.05) was determined as 1292.4 ± 0.4 kg/m3.

As to `[Br-].[Rb+]` [rubidium bromide] + O, the mass density (293.15 K, x1 = 0.01) came to 1068.6 ± 0.2 kg/m3; the mass density (293.15 K, x1 = 0.03) is reported as 1204.6 ± 0.3 kg/m3; the mass density (293.15 K, x1 = 0.05) turned out to be 1336.9 ± 0.4 kg/m3; the mass density (303.15 K, x1 = 0.01) turned out to be 1065 ± 0.2 kg/m3; the mass density (303.15 K, x1 = 0.03) turned out to be 1199.7 ± 0.3 kg/m3; the mass density (303.15 K, x1 = 0.05) is given as 1331 ± 0.4 kg/m3. Also, the mass density is recorded as 1060.7 ± 0.2 kg/m3 (313.15 K, x1 = 0.01); 1194.5 ± 0.3 kg/m3 (313.15 K, x1 = 0.03); 1324.9 ± 0.4 kg/m3 (313.15 K, x1 = 0.05); 1056 ± 0.2 kg/m3 (323.15 K, x1 = 0.01); 1188.9 ± 0.3 kg/m3 (323.15 K, x1 = 0.03); 1318.6 ± 0.4 kg/m3 (323.15 K, x1 = 0.05). In addition, the mass density (333.15 K, x1 = 0.01) was 1050.9 ± 0.2 kg/m3; the mass density (333.15 K, x1 = 0.03) came to 1182.9 ± 0.3 kg/m3; the mass density (333.15 K, x1 = 0.05) is 1312.2 ± 0.4 kg/m3.

`[Cl-].[Rb+]` [rubidium chloride] + O: the mass density runs as follows: (293.15 K, x1 = 0.01) 1048.3 ± 0.2 kg/m3; (293.15 K, x1 = 0.03) 1144.2 ± 0.3 kg/m3; (293.15 K, x1 = 0.05) 1237.9 ± 0.3 kg/m3; (303.15 K, x1 = 0.01) 1044.8 ± 0.2 kg/m3; (303.15 K, x1 = 0.03) 1139.8 ± 0.3 kg/m3; (303.15 K, x1 = 0.05) 1232.8 ± 0.3 kg/m3. For the same molecule, the mass density (313.15 K, x1 = 0.01) was 1040.7 ± 0.2 kg/m3; the mass density (313.15 K, x1 = 0.03) came to 1135 ± 0.3 kg/m3; the mass density (313.15 K, x1 = 0.05) is reported as 1227.5 ± 0.3 kg/m3; the mass density (323.15 K, x1 = 0.01) is 1036.1 ± 0.2 kg/m3; the mass density (323.15 K, x1 = 0.03) worked out at 1130 ± 0.3 kg/m3; the mass density (323.15 K, x1 = 0.05) stood at 1222 ± 0.3 kg/m3. Further, the mass density came out at 1031.2 ± 0.2 kg/m3 (333.15 K, x1 = 0.01); 1124.7 ± 0.3 kg/m3 (333.15 K, x1 = 0.03); 1216.3 ± 0.3 kg/m3 (333.15 K, x1 = 0.05).

In the case of `[F-].[Rb+]` [rubidium fluoride (RbF)] + O, the mass density worked out at 1048.7 ± 0.2 kg/m3 (293.15 K, x1 = 0.01); 1150.6 ± 0.3 kg/m3 (293.15 K, x1 = 0.03); 1250.3 ± 0.4 kg/m3 (293.15 K, x1 = 0.05); 1045.7 ± 0.2 kg/m3 (303.15 K, x1 = 0.01); 1146.5 ± 0.3 kg/m3 (303.15 K, x1 = 0.03); 1246.1 ± 0.4 kg/m3 (303.15 K, x1 = 0.05). For the same molecule, the mass density was 1042 ± 0.2 kg/m3 (313.15 K, x1 = 0.01); 1141.9 ± 0.3 kg/m3 (313.15 K, x1 = 0.03); 1241.4 ± 0.4 kg/m3 (313.15 K, x1 = 0.05); 1037.6 ± 0.2 kg/m3 (323.15 K, x1 = 0.01); 1137 ± 0.3 kg/m3 (323.15 K, x1 = 0.03); 1236.2 ± 0.4 kg/m3 (323.15 K, x1 = 0.05). In addition, the mass density came out at 1032.6 ± 0.2 kg/m3 (333.15 K, x1 = 0.01); 1131.6 ± 0.3 kg/m3 (333.15 K, x1 = 0.03); 1230.6 ± 0.4 kg/m3 (333.15 K, x1 = 0.05).
